Experimental data: patent US9650395B2, “Antibacterial compounds and methods for use” (PTC Therapeutics, Inc., priority 2011, dated 2017)
Converted amounts (≈) assume the structure as drawn. Like-named read-outs stand apart in the source and are kept apart here.

What was measured:
[1] = tested on: E. coli ELZ4251 (MDR clinical isolate); assay: Antibacterial activity, MIC, MDR E. coli ELZ4251; assay type: cell-based, Escherichia coli; conditions: Escherichia coli, E. coli ELZ4251, MDR clinical isolate; read-out: MIC ELZ4251
[2] = tested on: Neisseria meningitidis (N. meningitidis) 13090; assay: Antibacterial activity, MIC, N. meningitidis 13090; assay type: cell-based; conditions: Neisseria meningitidis; N. meningitidis 13090; read-out: MIC 13090
[3] = tested on: control Gram-negative E. coli 25922 strain; assay: Antibacterial activity, microbroth dilution MIC, E. coli 25922; assay type: cell-based, Escherichia coli; conditions: Escherichia coli; E. coli 25922, microbroth dilution; read-out: MIC, 25922
[4] = tested on: super sensitive Gram-negative Escherichia coli (E. coli) BAS849; assay: Antibacterial activity, microbroth dilution MIC, E. coli BAS849; assay type: cell-based; conditions: Escherichia coli, read-out: MIC, BAS849
[5] = tested on: Gram-positive Staphylococcus aureus (S. aureus) 29213; assay: Antibacterial activity, microbroth dilution MIC, S. aureus 29213; assay type: cell-based; conditions: Staphylococcus aureus; S. aureus 29213, microbroth dilution; read-out: MIC, 29213
[6] = tested on: Moraxella catarrhalis (M. catarrhalis) 25238; assay: Antibacterial activity, MIC, M. catarrhalis 25238; assay type: cell-based; conditions: Moraxella catarrhalis, M. catarrhalis 25238; read-out: MIC 25238
[7] = tested on: quinolone resistant E. coli LZ3111; assay: Antibacterial activity, MIC, quinolone resistant E. coli LZ3111; assay type: cell-based, Escherichia coli; conditions: Escherichia coli, read-out: MIC, LZ3111
Text: (§1) The antibacterial activity from a microbroth dilution method may be presented as the minimum inhibitory concentration (MIC in […]). The MIC value is the lowest concentration of a drug which prevents macroscopically visible bacterial growth under test conditions.
Mutations in these regions are known to confer a high level resistance to the quinolone class of antibiotics.

[8] = tested on: E. coli ELZ4000 (MDR clinical isolate); assay: Antibacterial activity, MIC, MDR E. coli ELZ4000; assay type: cell-based, Escherichia coli; conditions: Escherichia coli; E. coli ELZ4000, MDR clinical isolate; read-out: MIC ELZ4000
[9] = tested on: Pseudomonas aeruginosa (P. aeruginosa) 27853; assay: Antibacterial activity, MIC, P. aeruginosa 27853; assay type: cell-based; conditions: Pseudomonas aeruginosa, P. aeruginosa 27853; read-out: MIC 27853
Text: as §1
Antibacterial activity of test compounds against the Gram-negative bacterium Pseudomonas aeruginosa (P. aeruginosa) 27853 is shown in Table 5.

[10] = tested on: Haemophilus influenzae (H. influenzae) 49247; assay: Antibacterial activity, MIC, H. influenzae 49247; assay type: cell-based; conditions: Haemophilus influenzae; H. influenzae 49247; read-out: MIC 49247
Text: as §1
Antibacterial activity of test compounds against the Gram-negative bacteria Haemophilus influenzae (H. influenzae) 49247, Moraxella catarrhalis (M. catarrhalis) 25238 and Neisseria meningitidis (N. meningitidis) 13090 is shown in Table 6.

[11] = E. coli BAS849, microbroth dilution

| SMILES | MIC [1] [µg/mL] | MIC [2] [µg/mL] | MIC [3] [µg/mL] | MIC [4, 11] [µg/mL] | MIC [5] [µg/mL] | MIC [6] [µg/mL] | MIC [7] [µg/mL] | MIC [8] [µg/mL] | MIC [9] [µg/mL] | MIC [10] [µg/mL] | MIC [4] [µg/mL] |
| --- | --- | --- | --- | --- | --- | --- | --- | --- | --- | --- | --- |
| CCCc1cc(C(=O)O)c(=O)[nH]c1-c1ccc(N(C)C)cc1 [Cpd 8, 6-[4-(dimethylamino)phenyl]-2-oxo-5-propyl-1,2-dihydropyridine-3-carboxylic acid] | 12.5 to 150 (≈ 41.6 to 499 µM) | < 1 | 3.5 to 12.5 (≈ 11.7 to 41.6 µM) | < 1 | 12.5 to 150 (≈ 41.6 to 499 µM) | < 1 | 12.5 to 150 (≈ 41.6 to 499 µM) | 12.5 to 150 (≈ 41.6 to 499 µM) | 12.5 to 150 (≈ 41.6 to 499 µM) | < 1 |  |
| CN(C)c1ccc(-c2[nH]c(=O)c(C(=O)O)cc2C2CC2)cc1 [Cpd 12, 5-cyclopropyl-6-[4-(dimethylamino)phenyl]-2-oxo-1,2-dihydropyridine-3-carboxylic acid] | 12.5 to 150 (≈ 41.9 to 503 µM) | < 1 | 3.5 to 12.5 (≈ 11.7 to 41.9 µM) | < 1 | 12.5 to 150 (≈ 41.9 to 503 µM) | < 1 | 12.5 to 150 (≈ 41.9 to 503 µM) | 12.5 to 150 (≈ 41.9 to 503 µM) | 12.5 to 150 (≈ 41.9 to 503 µM) | < 1 |  |
| CCc1cc(C(=O)O)c(=O)[nH]c1-c1ccc(N(C)CCO)cc1 [Cpd 17, 5-ethyl-6-{4-[(2-hydroxyethyl)(methyl)amino]phenyl}-2-oxo-1,2-dihydropyridine-3-carboxylic acid] | 12.5 to 150 (≈ 39.5 to 474 µM) | < 1 | 3.5 to 12.5 (≈ 11.1 to 39.5 µM) | < 1 | 12.5 to 150 (≈ 39.5 to 474 µM) | < 1 | 12.5 to 150 (≈ 39.5 to 474 µM) | 12.5 to 150 (≈ 39.5 to 474 µM) |  | < 1 |  |
| CCc1c(-c2ccc(N3CCC3)cc2)[nH]c(=O)c(C(=O)O)c1O [Cpd 83, 6-[4-(azetidin-1-yl)phenyl]-5-ethyl-4-hydroxy-2-oxo-1,2-dihydropyridine-3-carboxylic acid] | 12.5 to 150 (≈ 39.8 to 477 µM) | < 1 | 3.5 to 12.5 (≈ 11.1 to 39.8 µM) | < 1 | 3.5 to 12.5 (≈ 11.1 to 39.8 µM) | < 1 | 12.5 to 150 (≈ 39.8 to 477 µM) | 12.5 to 150 (≈ 39.8 to 477 µM) | 12.5 to 150 (≈ 39.8 to 477 µM) | < 1 |  |
| CC(C)c1c(-c2ccc(N(C)C)cc2)[nH]c(=O)c(C(=O)O)c1O [Cpd 96, 6-[4-(dimethylamino)phenyl]-4-hydroxy-2-oxo-5-(propan-2-yl)-1,2-dihydropyridine-3-carboxylic acid] | 12.5 to 150 (≈ 39.5 to 474 µM) | < 1 | 3.5 to 12.5 (≈ 11.1 to 39.5 µM) | < 1 | 3.5 to 12.5 (≈ 11.1 to 39.5 µM) | < 1 | 12.5 to 150 (≈ 39.5 to 474 µM) | 12.5 to 150 (≈ 39.5 to 474 µM) | 12.5 to 150 (≈ 39.5 to 474 µM) | < 1 |  |
| CCc1c(-c2ccc(N3CCNCC3)cc2)[nH]c(=O)c(C(=O)O)c1O.O=C(O)C(F)(F)F [Cpd 105, 5-ethyl-4-hydroxy-2-oxo-6-[4-(piperazin-1-yl)phenyl]-1,2-dihydropyridine-3-carboxylic acid trifluoroacetate] | 12.5 to 150 | 1 to 3.5 | 3.5 to 12.5 |  | 12.5 to 150 | 3.5 to 12.5 | 12.5 to 150 | 12.5 to 150 |  | 3.5 to 12.5 | 1 to 3.5 |
| CCc1c(-c2ccc(-n3ccnc3)cc2)[nH]c(=O)c(C(=O)O)c1O [Cpd 107, 5-ethyl-4-hydroxy-6-[4-(1H-imidazol-1-yl)phenyl]-2-oxo-1,2-dihydropyridine-3-carboxylic acid] | 12.5 to 150 (≈ 38.4 to 461 µM) | < 1 | 12.5 to 150 (≈ 38.4 to 461 µM) | 1 to 3.5 (≈ 3.07 to 10.8 µM) | 12.5 to 150 (≈ 38.4 to 461 µM) | < 1 | 12.5 to 150 (≈ 38.4 to 461 µM) | 12.5 to 150 (≈ 38.4 to 461 µM) | 12.5 to 150 (≈ 38.4 to 461 µM) | < 1 |  |
| CCc1cc(C(=O)O)c(=O)[nH]c1-c1ccc(N2CCCCC2)cc1 [Cpd 108, 5-ethyl-2-oxo-6-[4-(piperidin-1-yl)phenyl]-1,2-dihydropyridine-3-carboxylic acid] | 12.5 to 150 (≈ 38.3 to 460 µM) | < 1 | 12.5 to 150 (≈ 38.3 to 460 µM) | < 1 | 12.5 to 150 (≈ 38.3 to 460 µM) | < 1 | 12.5 to 150 (≈ 38.3 to 460 µM) | 12.5 to 150 (≈ 38.3 to 460 µM) | 12.5 to 150 (≈ 38.3 to 460 µM) | < 1 |  |
| CCc1cc(C(=O)O)c(=O)[nH]c1-c1ccc(N2CCOCC2)cc1 [Cpd 110, 5-ethyl-6-[4-(morpholin-4-yl)phenyl]-2-oxo-1,2-dihydropyridine-3-carboxylic acid] | 12.5 to 150 (≈ 38.1 to 457 µM) | < 1 | 3.5 to 12.5 (≈ 10.7 to 38.1 µM) | < 1 | 12.5 to 150 (≈ 38.1 to 457 µM) | < 1 | 12.5 to 150 (≈ 38.1 to 457 µM) | 12.5 to 150 (≈ 38.1 to 457 µM) | 12.5 to 150 (≈ 38.1 to 457 µM) | < 1 |  |
